Values of other authors as cited in patent US8053446B2, “Cyanoguanidine compounds” (Leo Pharma A/S, priority 2004, dated 2011).

Key:
[1] = system: normal human endothelial cells
[2] = system: human tumour cells; conditions: nude mice transplanted with human tumour cells; also against tumour cells resistant to conventional anticancer drugs such as paclitaxel

## N#CNC(=Nc1ccncc1)NCCCCCCOc1ccc(Cl)cc1 [N-(6-(4-chlorophenoxy)hexyl)-N′-cyano-N″-(4-pyridyl)guanidine]
[1]
  antiproliferative activity: considerably less antiproliferative activity
[2]
  antitumour activity: substantial antitumour activity
